These results are taken from patent US20210318318A1, “Kinase Activity In Tumors” (Institute For Cancer Research d/b/a The Research Institute …, priority 2018, published 2021).

In one assay the test system is COV362. Nature of the assay: Short-term growth assay (CellTiter-Glo cell viability), kinase inhibitors. Type of assay: cell-based, human. The following applies: increasing concentrations, Cell Titer Glo. The protocol:
Cell viability was determined by Cell Titer Glo analysis.
COV362 cells were treated with increasing concentrations of A-674563 and cell viability assessed by Cell Titer Glo according to manufacturer's instructions. Data represent the mean of six replicates.
To explore the therapeutic potential of the HGSOC kinome signature, a detailed molecular analysis of protein levels/activity, growth and survival functions was carried out in a panel of recently validated HGSOC cell lines (Coscia et al., Nat. Commun., 2016, 7, 12645) that harbor commonly encountered HGSOC mutations and genetic rearrangements (see, FIG. 5A).
For short-term growth assays, 3000-5000 cells were plated per well in 96-well plates and allowed to adhere and equilibrate overnight. Drug was added the following morning and after 120 hours of drug treatment, cell viability was assessed using the CellTiter-Glo Luminescent cell viability assay according to manufacturer (Promega). Students t tests were performed for statistical analyses and p values ≤0.05 were considered significant. For colony formation assays, cells were plated in 24-well dishes (3000-5000 cells per well) and incubated overnight before continuous drug treatment for 14 days, with drug and media replaced twice weekly. At the end of treatment, cells were rinsed with PBS and fixed with chilled methanol for 10 minutes at −20° C. Methanol was removed by aspiration, and cells were stained with 0.5% crystal violet in 20% methanol for 20 minutes at room temperature, washed with distilled water, and scanned.
In general terms: Cellular ATP, detected with luciferase, serves as a proxy for viable cell number.

Another assay addresses T1, ROCK2 (Homo sapiens, UniProt O75116).
T1 construct: endogenous in cells; host or cells: OVSAHO
Nature of the assay: MIB/MS kinome profiling of inhibitor-treated OVSAHO cells. Type of assay: cell-based. The following applies: 2 μM, 4 hours. The protocol:
OVSAHO cells were treated with 2 μM of inhibitor for 4 hours and analyzed by MIB/MS. Scatterplot depicts difference in kinase MIB-binding of drug treated relative to control DMSO as determined by Students T-test.
MIB-based kinome profiling was performed on several of these molecules in HGSOC cells to determine kinome-wide inhibition profiles.
Experiments using MIB/MS were performed as previously described (Duncan et al., Cell, 2012, 149, 307-321; and Kurimchak et al., Cell Reports, 2016, 16, 1273-1286). Briefly, cells or tumors were lysed on ice in buffer containing 50 mM HEPES (pH 7.5), 0.5% Triton X-100, 150 mM NaCl, 1 mM EDTA, 1 mM EGTA, 10 mM sodium fluoride, 2.5 mM sodium orthovanadate, 1× protease inhibitor cocktail (Roche), and 1% each of phosphatase inhibitor cocktails 2 and 3 (Sigma). Particulate was removed by centrifugation of lysates at 13,000 rpm for 10 minutes at 4° C. and filtration through 0.2 μm syringe filters. Protein concentrations were determined by BCA analysis (Thermo). To compare kinome signatures within and across such large sample sizes, a super-SILAC method was designed (Neubert et al., Nat. Meth., 2010, 7, 361-362) consisting of a cocktail of cancer cell lines that encompasses the activity of the “cancer kinome” to be used as a control for individual samples. […] An equal amount of the HKS was added to the non-labeled sample (cell, tumor or normal tissue) providing a quantitative strategy to compare kinome activity/levels across samples, amongst treatments and, importantly, across time. […]
Proteolytic peptides were resuspended in 0.1% formic acid and separated with a Thermo RSLC Ultimate 3000 on a Thermo Easy-Spray C18 PepMap 75 μm×50 cm C-18 2 μm column with a 240 minute gradient of 4-25% acetonitrile with 0.1% formic acid at 300 nL/min and 50° C. Eluted peptides were analyzed by a Thermo Q Exactive plus mass spectrometer utilizing a top 15 methodology in which the 15 most intense peptide precursor ions were subjected to fragmentation.

The test system of another assay is HGSOC cells. Nature of the assay: Apoptosis in inhibitor-treated HGSOC cells. The following applies: increasing doses. Type of assay: cell-based, human.

T1 sequence (O75116 whole entry): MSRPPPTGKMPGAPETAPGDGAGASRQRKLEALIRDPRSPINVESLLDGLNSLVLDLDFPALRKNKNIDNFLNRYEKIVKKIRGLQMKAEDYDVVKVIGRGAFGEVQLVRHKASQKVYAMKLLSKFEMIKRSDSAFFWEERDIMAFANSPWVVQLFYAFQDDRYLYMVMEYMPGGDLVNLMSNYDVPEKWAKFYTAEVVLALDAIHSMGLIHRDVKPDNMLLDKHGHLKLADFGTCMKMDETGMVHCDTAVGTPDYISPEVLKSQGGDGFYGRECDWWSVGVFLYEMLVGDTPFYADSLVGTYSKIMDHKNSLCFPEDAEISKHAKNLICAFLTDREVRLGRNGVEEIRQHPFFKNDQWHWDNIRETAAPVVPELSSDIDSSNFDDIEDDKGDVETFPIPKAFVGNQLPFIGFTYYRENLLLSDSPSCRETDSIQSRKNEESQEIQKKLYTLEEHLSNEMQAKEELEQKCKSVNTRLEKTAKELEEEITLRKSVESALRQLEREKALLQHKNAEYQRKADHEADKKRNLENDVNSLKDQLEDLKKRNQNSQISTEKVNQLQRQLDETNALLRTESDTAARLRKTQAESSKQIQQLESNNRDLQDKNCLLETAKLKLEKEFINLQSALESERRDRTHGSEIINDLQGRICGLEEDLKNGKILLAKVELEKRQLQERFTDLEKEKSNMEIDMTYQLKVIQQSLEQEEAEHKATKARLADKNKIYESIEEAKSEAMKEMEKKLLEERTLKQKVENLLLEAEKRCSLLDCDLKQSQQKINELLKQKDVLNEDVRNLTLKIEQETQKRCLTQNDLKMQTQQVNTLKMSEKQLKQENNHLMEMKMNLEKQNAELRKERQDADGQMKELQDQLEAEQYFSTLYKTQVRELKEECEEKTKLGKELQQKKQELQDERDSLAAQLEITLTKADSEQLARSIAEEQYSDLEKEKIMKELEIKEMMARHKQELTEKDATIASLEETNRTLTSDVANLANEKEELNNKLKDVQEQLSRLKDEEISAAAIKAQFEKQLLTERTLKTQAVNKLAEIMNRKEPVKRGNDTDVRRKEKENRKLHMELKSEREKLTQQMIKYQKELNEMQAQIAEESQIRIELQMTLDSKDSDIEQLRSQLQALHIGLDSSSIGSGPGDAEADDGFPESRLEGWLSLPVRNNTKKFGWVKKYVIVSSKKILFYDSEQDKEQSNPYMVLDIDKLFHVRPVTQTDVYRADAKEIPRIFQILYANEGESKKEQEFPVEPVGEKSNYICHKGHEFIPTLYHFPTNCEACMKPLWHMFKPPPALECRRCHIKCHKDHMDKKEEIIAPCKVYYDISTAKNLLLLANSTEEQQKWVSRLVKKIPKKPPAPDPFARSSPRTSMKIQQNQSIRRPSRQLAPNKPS

For the molecule `Cc1[nH]nc2ccc(-c3cncc(OC[C@@H](N)Cc4ccccc4)c3)cc12` [A-674563], the cell viability entry in the assay on COV362 is listed as “inhibited cell viability”. The “MIB-binding of ROCK2” value on ROCK2 is given as “did not influence”. Moreover, the apoptosis entry with HGSOC cells is reported as “induced apoptosis”.
